The target of experiment [1] is T1, human recombinant Cdk5/p35 heterodimer (Homo sapiens, UniProt Q00535).
T1 construct: purchased Invitrogen (Life Technologies)
Briefly: Cdk5 assay (Z'-LYTE FRET enzymatic activity). Type of experiment: biochemical. The following applies: 10 nM enzyme, 12.5 µM ATP, 2 µM Ser/Thr 12 peptide, 60 min at room temperature; concentration in M units; read-out: Cdk5 inhibition pEC50 average (converted). As for the experimental part: The enzymatic activity of Cdk5 was determined with a commercial system based on the Z'-LYTE® technology, available from Life Technologies (Carlsbad, CA, USA), using human recombinant Cdk5/p35 heterodimer, also available from Invitrogen as the enzyme source. This technology utilizes the fluorescence resonance energy transfer ("FRET") process between fluorescein and coumarin. The assay principle is based on the differential sensitivity of phosphorylated and non-phosphorylated peptide to proteolytic cleavage, which precludes the energy transfer process between the two fluorophores attached to both sides of the cleavage site. […] The assay is performed in 384-well black plates, in a final volume of 10 µl, with 10 nM enzyme concentration, in 50 mM Hepes pH 7.5, 50 mM MgCl2, 5 mM EGTA and 0.05% Brij-35, using 12.5 µM ATP and 2 µM substrate peptide. The latter is a synthetic peptide provided by Invitrogen, under the commercial name "Ser/Thr 12 peptide", and it is based upon the sequence of Cdk7, containing Ser-164 and a (Ser/Thr)-Pro-X-(Lys/Arg) consensus sequence, wherein X is any residue. The peptide is labeled at both ends with fluorescein and coumarin. The assay is carried out in the presence of different concentrations of the tested compound, at a final 1% (v/v) DMSO concentration. After a 60 min incubation, at room temperature, 5 µl of a commercial protease solution (sold by the same vendor in the assay kit) is added and a subsequent 1h incubation at room temperature is performed, before adding 5 µl of a suitable "stop solution", also provided by the vendor in the kit. After that, fluorescence intensity is recorded, monitoring emission at both 445 and 520 nm, upon excitation at 400 nm. An emission ratio is finally calculated, using the quotient among the emission at 445 nm divided by that at 520 nm.
The emission ratio of each tested sample is normalized to that of the control wells, so that for every compound concentration the percentage of inhibition is calculated by using the following equation: % Inhibition = 100⋅(E-S)/(E-B) [formula] where "S" is the emission from the wells with the tested sample, "E" is the average emission from control wells with full enzyme activity and "B" is the average emission from wells with full enzyme inhibition. Inhibition values obtained for every compound concentration are finally used to calculate the pEC50 of the tested compound, this parameter being the negative value of the logarithm of the compound concentration, in M units, causing 50% of its maximum effect (i.e., the higher the pEC50 value the higher the potency of the compound). For that purpose the data were fitted to the following equation using the nonlinear regression function of GraphPad™ Prism 5.0 (GraphPad Software Inc.): % Inhibition = L + (H-L)/(1 + 10^(((logC+pEC50))^N)) [formula] where "L" is the lower asymptote of the theoretical sigmoidal curve, "H" is the higher asymptote, "C" is the concentration of compound in M units and "N" is the Hill coefficient.

For experiment [2], the target named is T2, human recombinant GSK3β (N-terminal 6His-tagged recombinant enzyme with an H350L mutation) (Homo sapiens, UniProt P49841).
T2 construct: 6His (N); purchased Millipore (Billerica, MA, USA)
T2 sequence (P49841 whole entry, stated change not applied): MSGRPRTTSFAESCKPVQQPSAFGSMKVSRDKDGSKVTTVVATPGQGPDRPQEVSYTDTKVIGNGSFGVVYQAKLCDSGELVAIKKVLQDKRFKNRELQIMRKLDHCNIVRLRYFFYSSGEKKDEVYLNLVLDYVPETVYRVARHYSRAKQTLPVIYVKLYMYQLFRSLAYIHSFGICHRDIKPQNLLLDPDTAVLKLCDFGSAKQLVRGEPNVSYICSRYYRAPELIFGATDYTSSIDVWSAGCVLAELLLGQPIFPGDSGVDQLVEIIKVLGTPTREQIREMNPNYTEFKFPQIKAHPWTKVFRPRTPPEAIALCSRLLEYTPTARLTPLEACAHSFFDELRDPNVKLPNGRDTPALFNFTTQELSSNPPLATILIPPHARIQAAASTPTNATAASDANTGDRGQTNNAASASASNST
Description: GSK-3 assay (Z'-LYTE FRET enzymatic activity). The format is biochemical. The following applies: 2 nM enzyme, 12.5 µM ATP, 2 µM Ser/Thr 9 peptide, 60 min at room temperature; concentration in M units; read-out: GSK-3 inhibition pEC50 average (converted). As for the experimental part: The enzymatic activity of GSK3β was determined with a commercial system based on the Z'-LYTE® technology, available from Life Technologies (Carlsbad, CA, USA), using human recombinant GSK3β (N-terminal 6His-tagged recombinant enzyme with an H350L mutation) from Millipore (Billerica, MA, USA) as the enzyme source. This technology utilizes the fluorescence resonance energy transfer ("FRET") process between fluorescein and coumarin. The assay principle is based on the differential sensitivity of phosphorylated and non-phosphorylated peptide to proteolytic cleavage, which precludes the energy transfer process between the two fluorophores attached to both sides of the cleavage site. […] The assay is performed in 384-well black plates, in a final volume of 10 µl, with 2 nM enzyme concentration in 50 mM Hepes pH 7.5, 50 mM MgCl2, 5 mM EGTA and 0.05% Brij-35, using 12.5 µM ATP and 2 µM substrate peptide. The latter is a synthetic peptide, provided by Invitrogen under the commercial name "Ser/Thr 9 peptide", and it is based upon the sequence of a GSK3β substrate protein (glycogen synthase I) containing Ser-641. The peptide is labeled at both ends with fluorescein and coumarin. The assay is carried out in the presence of different concentrations of the tested compound, at a final 1 % (v/v) DMSO concentration. After a 60 min incubation at room temperature, 5 µl of a commercial protease solution (sold by the same vendor in the assay kit) is added and a subsequent 1h incubation at room temperature is performed, before adding 5 µl of a suitable "stop solution", also provided by the vendor in the kit. After that, fluorescence intensity is recorded, monitoring emission at both 445 and 520 nm, upon excitation at 400 nm. An emission ratio is finally calculated, using the quotient among the emission at 445 nm divided by that at 520 nm.
The emission ratios for each concentration of compound are finally used to calculate the pEC50 value, according to the procedure described above for Cdk5.

T1 sequence (Q00535 whole entry): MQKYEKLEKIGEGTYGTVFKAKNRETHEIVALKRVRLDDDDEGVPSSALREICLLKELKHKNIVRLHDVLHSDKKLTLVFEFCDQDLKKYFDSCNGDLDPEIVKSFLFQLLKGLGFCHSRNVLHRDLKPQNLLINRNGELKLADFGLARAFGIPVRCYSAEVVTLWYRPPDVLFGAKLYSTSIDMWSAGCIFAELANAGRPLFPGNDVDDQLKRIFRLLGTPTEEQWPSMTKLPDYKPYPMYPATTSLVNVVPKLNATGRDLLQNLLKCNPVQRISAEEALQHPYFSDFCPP
T1 sequence (Q15078 whole entry partner): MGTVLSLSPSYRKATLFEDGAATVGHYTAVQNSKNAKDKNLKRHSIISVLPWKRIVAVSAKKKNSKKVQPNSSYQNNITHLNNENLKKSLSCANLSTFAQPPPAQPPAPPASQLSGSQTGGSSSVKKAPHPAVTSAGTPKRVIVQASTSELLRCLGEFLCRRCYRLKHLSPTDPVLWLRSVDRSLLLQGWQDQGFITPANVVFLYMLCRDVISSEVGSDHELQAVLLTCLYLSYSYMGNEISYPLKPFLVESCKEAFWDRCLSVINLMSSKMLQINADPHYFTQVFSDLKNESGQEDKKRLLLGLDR

For `CN1C(=N)N(C)C(c2c(C(=O)O)[nH]c3ccc(Br)cc23)C1O` (centres unmarked) [Compound 5], the EC50 in experiment [1] was 3.09 µM; in experiment [2] it was 97.7 µM.

Turning to `CN1C(=N)NCC1c1c(C(=O)O)[nH]c2cc(O)c(Br)cc12` (centres unmarked) [Compound 3], the EC50 is 0.0955 µM in experiment [1] and 11.2 µM in experiment [2].

Take `CN1CC(c2c(C(=O)O)[nH]c3ccc(Br)cc23)N(C)C1=N` (centres unmarked) [Compound 2]: the EC50 was 2.82 µM in experiment [1] and 74.1 µM in experiment [2].

Turning to `CN1C(N)=NCC1c1c(C(=O)O)[nH]c2ccccc12` (centres unmarked) [Compound 7], the EC50 is 0.933 µM in experiment [1] and 42.7 µM in experiment [2].

For `CN1C(=N)N(C)C(c2c(C(=O)O)[nH]c3cc(O)c(Br)cc23)C1O` (centres unmarked) [Compound 6], the EC50 is 0.049 µM in experiment [1] and 8.32 µM in experiment [2].

Consider `CN1CC(c2c(C(=O)O)[nH]c3cc(O)c(Br)cc23)N(C)C1=N` (centres unmarked) [Compound 4], for which the EC50 in experiment [1] is 0.0741 µM; in experiment [2] it was 15.5 µM.

For the molecule `CN1C(=N)NCC1c1c(C(=O)O)[nH]c2ccc(Br)cc12` (centres unmarked) [Compound 1], the figures for the EC50 in experiment [1] and in experiment [2] were 1.1 µM and 35.5 µM, respectively.

The record behind these values is patent publication EP2662081A1, “Therapeutic use of indole-dihydro-imidazole derivatives” (NOSCIRA, S.A., priority 2012, dated 2013).
